Laboratory results published in patent publication US20090053509A1, “Mixed solubility borate preservative” (U.S. Borax Inc., priority 2000, published 2009).

What was measured:
mold [1] = assay: Mold exposure test on aspen OSB with water repellant (Example 3); type: cell-based; conditions: scale 0-4; for Mold Formation Rating: 4 weeks, OSB pMDI 6%
Description: (§1) Mold exposure testing was carried out using a modified version of the ASTM: D 3273-94 procedure. Exposure of the OSB samples to mold was done in an experimental chamber consisting of a 597 mm×311 mm×413 mm plastic container tilted on its side to give a 45° roof angle to prevent condensate dripping on the samples and filled with 2-3 inches of water. The water was heated to 32.5° C. (±1° C.), using a thermostatically controlled heating coil. A 292 mm×394 mm×133 mm plastic bowl was filled to within 3 inches from the top with a mixture of damp potting soil and unsterile soil collected from outdoors to provide an inoculum source for mold. The bowl was floated in the plastic container. The boards were placed on a plastic mesh above the inoculum source. The blocks were inverted at one week intervals. The test ran for a duration of 4 weeks.
Another set of mold tests similar to Example 2 was carried out. Test samples consisted of Aspen OSB bonded with pMDI resin at a 6% loading. The OSB samples were treated with a hydrophobic resin 1% EW-58S, manufactured by Borden, which served as a water repellant. The preservative treated OSB samples contained either zinc borate alone or a mixture of zinc borate and DOT, at a 60/40 weight ratio. Target loadings of preservative were 0.05, 0.10 and 0.20% by weight in the OSB samples . The OSB test samples were cut into 76 mm×102 mm panels for use in the mold testing. Mold exposure testing was carried out using essentially the same method described in Example 2, except that the water was heated to 30.5° C. (±1° C.). The relative humidity within the environmental chamber was monitored and maintained at .95 to 99% with an average temperature of 27 to 30° C.
After the four week mold exposure, the samples were examined visually and rated for mold growth on a scale of 0 to 4, as in Example 2.

mold [2] = assay: Mold exposure test on aspen OSB, modified ASTM D 3273-94 (Example 2); type: cell-based; conditions: for Mold Formation Rating: 4 weeks; for Mold Formation Rating, Average: average over boards and soluble borates
Description: The effectiveness of the mixed solubility wood preservatives of this invention against mold growth was tested on samples of aspen oriented strand board (OSB). Two OSB formulations were evaluated. One type was bonded with pMDI resin at a 6% loading. The other type was bonded with a PF resin face and a pMDI resin core. The OSB samples contained either a mixed solubility borate preservative formulation or a low solubility borate alone, or no preservative in the case of the control samples. The low solubility borate in all cases was zinc borate 2:3:3.5. The two different high solubility borates were tested—disodium octaborate tetrahydrate (DOT) and boric oxide (B2O3), also known as anhydrous boric acid (ABA). The weight ratio of low solubility borate to high solubility borate in the mixed solubility samples was either 80/20 or 60/40. Two different target loadings of preservative in the OSB samples were tested—0.18% and 0.88% by weight.
as §1
After the four week mold exposure, the samples were examined visually and rated for mold formation on a scale of 0 to 4, with 0 representing no mold formation (i.e. complete control) and 4 representing complete coverage or overgrowth of the sample by mold. […] With regard to the ratio of high solubility borate to low solubility borate, the samples containing 40% soluble borate (i.e. 60% zinc borate) provided a significant improvement over the samples containing 0% soluble borate (i.e. 100% zinc borate), on average.

[3] = tested on: Formosan subterranean termite (Coptotermes formosanus Shiraki); assay: Termite field test of aspen waferboards, Hilo; type: in vivo; conditions: 0.88% preservative
From the text: The performance of mixed solubility borate preservatives against termites was investigated in a study using aspen waferboards bonded with either 100% pMDI (in both face and core) or with Phenol Formaldehyde (PF) in the face and pMDI in the core. The boards were made with a target loading of 0.88% preservative utilizing the formulations (blends) described in Table 4. The borates were incorporated into the board by mixing the preservative formulations with the aspen wafers in a blender before addition of the adhesive and wax. Composite board specimens were exposed to the Formosan subterranean termite (Coptotermes formosanus Shiraki) at a field test site in Hilo, Hi. The specimens, along with untreated aspen ‘feeder’ stakes, are placed in a horizontal array on hollow core concrete blocks approximately 10 cm thick. In addition to surrounding the test specimens, the untreated feeder stakes are also driven into the ground in an effort to increase the termite pressure on the test specimens. The assembly is then covered with a wooden box to prevent direct contact with rain. This is a severe test format conducted using a very termite susceptible wood species (aspen).
After 3, 9 and 15 months exposure the boards were rated visually on a scale of 0 to 10 . A rating of 10 indicates the sample was in perfect condition, while a 0 rating means the sample was essentially destroyed. Each result consisted of an average rating from the inspection of 10 separate samples (10 replicates).

[4] = tested on: Coniophora puteana (brown rot); assay: EN113 decay test of wood composites; type: cell-based; conditions: wood composite PF face/pMDI core; preservative loading 0.1% by weight; 12 weeks fungal decay exposure; eight samples
Description: Wood composite samples were made having a phenol-formaldehyde (PF) resin face and a diphenylmethanediisocyanate (pMDI) resin core. Some of the samples included a combination of the zinc borate, 2ZnO·3B2O3·3.5H2O, (ZB) and disodium octaborate tetrahydrate (DOT) and others contained ZB alone, while still others contained no wood preservative. The ZB/DOT combination formulations contained 60% ZB by weight and 40% DOT. The preservative compositions were added to the wood composite samples at a loading of 0.1% by weight of the wood composite. The samples were cut to 50 mm×25 mm×20 mm before testing. A total of eight samples from each treatment set were subjected to decay testing.
A total of eight samples from each treatment set were tested according to a standard European decay test protocol known as EN113. The samples were first sealed in plastic bags and gamma irradiated at a level of at a level of 2.0 Mrad using a ^60Co source to ensure sterilization prior to mono-culture decay testing.
Aqueous solutions of 2.0% malt and 2.0% agar were prepared and then autoclaved at 120° C. for 30 minutes. […]
The decay results are shown in Table 1, expressed as average percent weight loss of the wood composite samples after 12 weeks of fungal decay exposure.

Substance: 2ZnO·3B2O3·3.5H2O [ZB only]
- Mold Formation Rating (mold [1]; target borate loading 0.05 % BAE, Edges): 1.00
- Mold Formation Rating (mold [1]; target borate loading 0.05 % BAE, Faces): 1.00
- Mold Formation Rating (mold [1]; target borate loading 0.10 % BAE, Edges): 3.33
- Mold Formation Rating (mold [1]; target borate loading 0.10 % BAE, Faces): 2.67
- Mold Formation Rating (mold [1]; target borate loading 0.20 % BAE, Edges): 2.33
- Mold Formation Rating (mold [1]; target borate loading 0.20 % BAE, Faces): 1.00
- Mold Formation Rating, Average (mold [1]; average over loadings 0.05-0.20 % BAE, Faces and Edges): 1.89
- Mold Formation Rating (mold [2]; scale 0 (no mold) to 4 (complete coverage), target borate loading 0.18 % BAE, board pMDI-6%, measured at Edges): 2.00
- Mold Formation Rating (mold [2]; scale 0-4, target borate loading 0.18 % BAE, board PF-pMDI, measured at Edges): 2.00
- Mold Formation Rating (mold [2]; scale 0-4, target borate loading 0.18 % BAE, board PF-pMDI, measured at Faces): 1.25
- Mold Formation Rating (mold [2]; scale 0-4, target borate loading 0.18 % BAE, board pMDI-6%, measured at Faces): 0.75
- Mold Formation Rating (mold [2]; scale 0-4, target borate loading 0.88 % BAE, board PF-pMDI, measured at Edges): 1.50
- Mold Formation Rating (mold [2]; scale 0-4, target borate loading 0.88 % BAE, board PF-pMDI, measured at Faces): 0.75
- Mold Formation Rating (mold [2]; scale 0-4, target borate loading 0.88 % BAE, board pMDI-6%, measured at Edges): 0.75
- Mold Formation Rating (mold [2]; scale 0-4, target borate loading 0.88 % BAE, board pMDI-6%, measured at Faces): 0.00
- Mold Formation Rating, Average (mold [2]; scale 0-4, 0.18 % BAE, Edges): 2.00
- Mold Formation Rating, Average (mold [2]; scale 0-4, 0.18 % BAE, Faces): 1.00
- Mold Formation Rating, Average (mold [2]; scale 0-4, 0.88 % BAE, Edges): 1.13
- Mold Formation Rating, Average (mold [2]; scale 0-4, 0.88 % BAE, Faces): 0.38
- Termites Ratings ([3]; scale 0 (destroyed) to 10 (perfect), board pMDI, 3 mos. exposure, average of 10 replicates): 10
- Termites Ratings ([3]; scale 0-10, board PF/pMDI, 3 mos. exposure): 10
- Termites Ratings ([3]; scale 0-10, board PF/pMDI, 9 mos. exposure): 9.5
- Termites Ratings ([3]; scale 0-10, board PF/pMDI, 15 mos. exposure): 9.7
- Termites Ratings ([3]; scale 0-10, board pMDI, 9 mos. exposure): 9.8
- Termites Ratings ([3]; scale 0-10, board pMDI, 15 mos. exposure): 9.9
- Average % Wt. Loss [4]: 15.98%
